{
  "source": "patent US20060134056A1",
  "about": "“Use of alkylguanidines as cationic emulsifiers” (G[…], priority 2004, published 2006)",
  "experiment": "storage stability of O/W emulsions",
  "type": "physicochemical",
  "conditions": "O/W emulsion with 0.5% emulsifier; room temperature, 45° C. and freeze-thaw cycles (3×−15° C.)",
  "description": "Here, it was paaticulaily surprising that stable emulsions were obtainale even at emulsifier concentrations of 0.5% stearylguanidinium acetate (6 months stability at room temperature, 45° C. and freeze-thaw cycles (3×−15° C.)).\nIn addition, emulsions 7 to 8 also illustrate the excellent emulsifying properties of other alkylguanidinium salts.",
  "data": [
    {"smiles": "CC(=O)O.CCCCCCCCCCCCCCCCCCNC(=N)N", "note": "[stearylguanidinium acetate]", "values": [
      {"measurement": "stability of emulsion", "value": 6, "unit": "months"}
    ]}
  ]
}
